Data taken from paper PMC11308155 (Microbial Cell Factories, 2024).
In brackets after ≈: the same amount, converted by molar mass.

Key:
[1] = tested on: E. coli clinical isolates; assay: MIC by broth microdilution against clinical isolates of E. coli; format: cell-based
[2] = tested on: CTX-M-15-producer isogenic strain; assay: Disc diffusion test, CTX-M-15-producer; format: cell-based, E. coli; conditions: cefotaxime disc 30 µg
[3] = tested on: isogenic strain producing CTX-M-15; assay: Time-kill kinetic assay, CTX-M-15-producing isogenic strain; format: cell-based, E. coli; conditions: cefotaxime 2 µg/mL + inhibitor 4 µg/mL; CTX-M-15 strain
[4] = tested on: isogenic strain producing KPC-2; assay: Time-kill kinetic assay, KPC-2-producing isogenic strain; format: cell-based, E. coli; conditions: imipenem 4 µg/mL + inhibitor 4 µg/mL, KPC-2 strain
[5] = tested on: K. pneumoniae clinical isolates; assay: MIC by broth microdilution against clinical isolates of K. pneumoniae; format: cell-based; conditions: for MIC range: K. pneumoniae clinical isolates, 25 isolates
[6] = tested on: KPC-2-producer isogenic strain; assay: Disc diffusion test, KPC-2-producer; format: cell-based, E. coli; conditions: imipenem disc 10 µg
CTX-M-15 [7] = conditions: ref 17 (Faheem et al.); cited from earlier work
KPC-2 = KPC-2 (Klebsiella pneumoniae, UniProt Q9F663); assay: Purified β-lactamase inhibition assay with nitrocefin, KPC-2; format: biochemical, K. pneumoniae
Sequence of KPC-2 (Q9F663 25-293, looked up): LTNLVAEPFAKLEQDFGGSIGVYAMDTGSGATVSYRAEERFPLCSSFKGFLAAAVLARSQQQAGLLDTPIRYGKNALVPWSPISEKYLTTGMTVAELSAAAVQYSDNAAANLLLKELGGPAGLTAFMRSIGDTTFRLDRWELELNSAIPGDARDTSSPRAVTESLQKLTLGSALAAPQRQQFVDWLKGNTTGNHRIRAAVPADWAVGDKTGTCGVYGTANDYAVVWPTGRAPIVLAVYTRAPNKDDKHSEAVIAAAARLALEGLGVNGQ

CTX-M-15 [8] = biological target: CTX-M-15 (Escherichia coli, UniProt Q9EXV5); assay: Purified β-lactamase inhibition assay with nitrocefin, CTX-M-15; format: biochemical, E. coli
Sequence of CTX-M-15 (Escherichia coli, UniProt Q9EXV5) (Q9EXV5 29-291): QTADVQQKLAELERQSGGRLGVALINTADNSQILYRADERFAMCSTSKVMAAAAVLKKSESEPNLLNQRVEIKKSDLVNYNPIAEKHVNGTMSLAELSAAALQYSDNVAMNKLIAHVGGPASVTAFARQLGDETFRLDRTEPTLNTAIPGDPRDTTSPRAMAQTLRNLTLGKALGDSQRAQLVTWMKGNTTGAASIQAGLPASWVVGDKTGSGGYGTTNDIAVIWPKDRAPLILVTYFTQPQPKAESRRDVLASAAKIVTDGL

Compound: CC1=C(C(=O)O)N2C(=O)[C@@H](NC(=O)[C@H](N)c3ccccc3)[C@H]2SC1 [Cefalexin, cefalexin]
- MIC90 ([1]; Escherichia coli): 512 µg/mL (≈ 1470 µM)

Compound: CO/N=C(\C(=O)N[C@@H]1C(=O)N2C(C(=O)O)=C(COC(C)=O)CS[C@H]12)c1csc(N)n1 [Cefotaxime, cefotaxime]
- disc diffusion result, antibiotic disc only [2]: resistance
- MIC range ([1]; E. coli clinical isolates, 25 isolates): 64 to 128 µg/mL

Compound: O=C(O)[C@H]1/C(=C/CO)O[C@@H]2CC(=O)N21 [Clavulanic acid, clavulanic acid]
- incubation time after which viable count was below the limit of detection [3]: 10 h
- reduction in CFU ([4]; after 6 h of incubation): 2 log10

Compound: C[C@@H](O)[C@H]1C(=O)N2C(C(=O)O)=C(S[C@@H]3CN[C@H](C(=O)Nc4cccc(C(=O)O)c4)C3)[C@H](C)[C@H]12 [Ertapenem, ertapenem]
- MIC range [5]: 8 to 256 µg/mL
- MIC range ([5]; listed as ertapenem): 8 to 256 µg/mL
- MIC90 ([5]; Klebsiella pneumoniae): 32 µg/mL (≈ 67.3 µM)

Compound: C[C@@H](O)[C@H]1C(=O)N2C(C(=O)O)=C(SCCN=CN)C[C@H]12 [Imipenem, imipenem]
- MIC range [5]: 64 to 512 µg/mL
- disc diffusion result, antibiotic disc only [6]: resistance

Compound: C[C@]1(Cn2ccnn2)[C@H](C(=O)O)N2C(=O)C[C@H]2S1(=O)=O [Tazobactam, tazobactam]
- incubation time after which viable count was below the limit of detection [3]: 6 h
- decrease of the MICs of some cephalosporin antibiotics (CTX-M-15 [7]): 2–16 folds
- IC50 (KPC-2): 69.6 µM
- Ki (KPC-2): 29.2 µM
- incubation time after which viable count was below the limit of detection [4]: 8 h
- IC50 (CTX-M-15 [8]): 58.3 µM
- Ki (CTX-M-15 [8]; Ki, CTX-M-15, nitrocefin substrate): ~31 µM
